Results published in ChEMBL document CHEMBL1201862, “PubChem BioAssay data set” (2004).
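Each compound was tested at five concentrations against cells in 96-well plates for 48 hours. GI50: concentration for 50% inhibition of growth.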 Active and inactive are the calls of the source. Rule as the data show it: active = GI50 up to about 1.1 µM and inactive = higher.

Experiments:
Experiment in all cases: inhibition of tumour cell growth, NCI panel, 48 h
786-0 = system: 786-0
A498 = system: A498
A549 = system: A549
ACHN = system: ACHN
CCRF-CEM = system: CCRF-CEM
COLO 205 = system: COLO 205
DLD-1 = system: DLD-1
DMS-114 = system: DMS-114
DMS-273 = system: DMS-273
EKVX = system: EKVX
HCC 2998 = system: HCC 2998
HCT-116 = system: HCT-116
HCT-15 = system: HCT-15
HL-60 = system: HL-60
HOP-92 = system: HOP-92
HT-29 = system: HT-29
IGROV-1 = system: IGROV-1
K562 = system: K562
KM12 = system: KM12
LOX IMVI = system: LOX IMVI
LXFL 529 = system: LXFL 529
M14 = system: M14
M19-MEL = system: M19-MEL
MOLT-4 = system: MOLT-4
Malme-3M = system: Malme-3M
NCI-H226 = system: NCI-H226
NCI-H23 = system: NCI-H23
NCI-H460 = system: NCI-H460
NCI-H522 = system: NCI-H522
OVCAR-3 = system: OVCAR-3
OVCAR-4 = system: OVCAR-4
OVCAR-5 = system: OVCAR-5
OVCAR-8 = system: OVCAR-8
RPMI-8226 = system: RPMI-8226
RXF 393 = system: RXF 393
SF-268 = system: SF-268
SF-295 = system: SF-295
SF-539 = system: SF-539
SK-MEL-28 = system: SK-MEL-28
SK-MEL-2 = system: SK-MEL-2
SK-MEL-5 = system: SK-MEL-5
SK-OV-3 = system: SK-OV-3
SN12C = system: SN12C
SNB-19 = system: SNB-19
SNB-75 = system: SNB-75
SNB-78 = system: SNB-78
SR = system: SR
SW-620 = system: SW-620
TK-10 = system: TK-10
U-251 = system: U-251
UACC-257 = system: UACC-257
UACC-62 = system: UACC-62
UO-31 = system: UO-31
XF498 = system: XF498
CAKI-1 = system: CAKI-1
HOP-62 = system: HOP-62

CCOC(=O)c1oc2c(OC)cc(Cl)c3c2c1CCC3
GI50 (786-0): 30.8 µM (inactive) | GI50 (A498): 69.8 µM (inactive) | GI50 (A549): 59.8 µM (inactive) | GI50 (ACHN): 30.3 µM (inactive) | GI50 (CCRF-CEM): > 100 µM (inactive) | GI50 (COLO 205): > 100 µM (inactive) | GI50 (DLD-1): > 100 µM (inactive) | GI50 (DMS-114): > 100 µM (inactive) | GI50 (DMS-273): 92 µM (inactive) | GI50 (EKVX): > 100 µM (inactive) | GI50 (HCC 2998): > 100 µM (inactive) | GI50 (HCT-116): 44.3 µM (inactive) | GI50 (HCT-15): > 100 µM | GI50 (HL-60): > 100 µM (inactive) | GI50 (HOP-92): 20.7 µM (inactive) | GI50 (HT-29): > 100 µM (inactive) | GI50 (IGROV-1): 38.3 µM (inactive) | GI50 (K562): > 100 µM (inactive) | GI50 (KM12): > 100 µM (inactive) | GI50 (LOX IMVI): > 100 µM (inactive) | GI50 (LXFL 529): > 100 µM (inactive) | GI50 (M14): > 100 µM (inactive) | GI50 (M19-MEL): > 100 µM (inactive) | GI50 (MOLT-4): > 100 µM (inactive) | GI50 (Malme-3M): > 100 µM (inactive) | GI50 (NCI-H226): 12.2 µM (inactive) | GI50 (NCI-H23): > 100 µM (inactive) | GI50 (NCI-H460): > 100 µM (inactive) | GI50 (NCI-H522): 29.2 µM (inactive) | GI50 (OVCAR-3): 13.6 µM (inactive) | GI50 (OVCAR-4): 38.6 µM (inactive) | GI50 (OVCAR-5): > 100 µM (inactive) | GI50 (OVCAR-8): 35.4 µM (inactive) | GI50 (RPMI-8226): > 100 µM (inactive) | GI50 (RXF 393): 24.2 µM (inactive) | GI50 (SF-268): > 100 µM (inactive) | GI50 (SF-295): 58.1 µM (inactive) | GI50 (SF-539): > 100 µM (inactive) | GI50 (SK-MEL-28): 58.3 µM (inactive) | GI50 (SK-MEL-2): > 100 µM (inactive) | GI50 (SK-MEL-5): > 100 µM (inactive) | GI50 (SK-OV-3): 50.8 µM (inactive) | GI50 (SN12C): 64.7 µM (inactive) | GI50 (SNB-19): 31.5 µM (inactive) | GI50 (SNB-75): 26.2 µM (inactive) | GI50 (SNB-78): > 100 µM (inactive) | GI50 (SR): > 100 µM (inactive) | GI50 (SW-620): > 100 µM (inactive) | GI50 (TK-10): 27.4 µM (inactive) | GI50 (U-251): 45 µM (inactive) | GI50 (UACC-257): > 100 µM (inactive) | GI50 (UACC-62): > 100 µM (inactive) | GI50 (UO-31): 28.6 µM (inactive) | GI50 (XF498): 19.5 µM (inactive)

CC(C)(C)OC(=O)NCC(=O)OCc1ccccc1
GI50 (786-0): > 100 µM (inactive) | GI50 (A498): > 100 µM (inactive) | GI50 (A549): > 100 µM (inactive) | GI50 (ACHN): > 100 µM (inactive) | GI50 (CAKI-1): > 10 µM (inactive) | GI50 (CCRF-CEM): > 100 µM (inactive) | GI50 (COLO 205): > 100 µM (inactive) | GI50 (DLD-1): > 100 µM (inactive) | GI50 (DMS-114): > 100 µM (inactive) | GI50 (DMS-273): > 100 µM (inactive) | GI50 (HCC 2998): > 100 µM (inactive) | GI50 (HCT-116): > 100 µM (inactive) | GI50 (HCT-15): > 100 µM | GI50 (HL-60): > 100 µM (inactive) | GI50 (HOP-62): > 100 µM (inactive) | GI50 (HOP-92): > 100 µM (inactive) | GI50 (HT-29): > 100 µM (inactive) | GI50 (IGROV-1): > 100 µM (inactive) | GI50 (K562): > 100 µM (inactive) | GI50 (KM12): > 100 µM (inactive) | GI50 (LOX IMVI): > 100 µM (inactive) | GI50 (LXFL 529): > 100 µM (inactive) | GI50 (M14): > 100 µM (inactive) | GI50 (M19-MEL): > 100 µM (inactive) | GI50 (MOLT-4): > 100 µM (inactive) | GI50 (Malme-3M): > 100 µM (inactive) | GI50 (NCI-H23): > 100 µM (inactive) | GI50 (NCI-H460): > 100 µM (inactive) | GI50 (NCI-H522): > 10 µM (inactive) | GI50 (OVCAR-3): > 100 µM (inactive) | GI50 (OVCAR-5): > 100 µM (inactive) | GI50 (OVCAR-8): > 100 µM (inactive) | GI50 (SF-268): > 100 µM (inactive) | GI50 (SF-295): > 100 µM (inactive) | GI50 (SF-539): > 100 µM (inactive) | GI50 (SK-MEL-28): > 100 µM (inactive) | GI50 (SK-MEL-2): > 100 µM (inactive) | GI50 (SK-OV-3): > 100 µM (inactive) | GI50 (SN12C): > 100 µM (inactive) | GI50 (SNB-19): > 100 µM (inactive) | GI50 (SNB-75): > 100 µM (inactive) | GI50 (SNB-78): > 100 µM (inactive) | GI50 (SW-620): > 100 µM (inactive) | GI50 (TK-10): > 100 µM (inactive) | GI50 (U-251): > 100 µM (inactive) | GI50 (UACC-257): > 100 µM (inactive) | GI50 (UACC-62): > 100 µM (inactive) | GI50 (UO-31): > 100 µM (inactive) | GI50 (XF498): > 100 µM (inactive)
